Source: article PMC3251254, “Mini-PEG spacering of VAP-1-targeting ^68Ga-DOTAVAP-P1 peptide improves PET imaging of inflammation” (EJNMMI Research, 2011)
Where two headings read alike, the source gives them in different places. Residues, ends and D or L forms follow the SMILES beside them. *: point of attachment. DOTA = O=C(O)CN1CCN(CC(=O)O)CCN(CC(=O)*)CCN(CC(=O)O)CC1; AEEA = NCCOCCOCC(=O)O

Legend:
[1] = in vivo, iv; for AUC / CL / blood-plasma ratio / metabolic half-life / plasma free fraction (fp): rat
Protocol: Blood samples (0.2 ml of each) were drawn at 5, 10, 15, 30, 45, 60 and 120 min after injection of ^68Ga-DOTA-peptides into heparinised tubes (Microvette 100; Sarstedt, Nümbrecht, Germany). Radioactivity of whole blood was measured with the gamma counter (Wizard, EG&G Wallac). Plasma was separated by centrifugation (2,200 × g for 5 min at 4°C), and plasma radioactivity was measured. The ratio of radioactivity in blood versus plasma was calculated. To determine plasma protein binding, proteins were precipitated with 10% sulphosalicylic acid, and the radioactivity in protein precipitate and supernatant was measured. The plasma supernatant was further analysed by radio-HPLC in order to evaluate the in vivo stability of the ^68Ga-labelled peptides.
In vivo stability data were used in order to generate metabolite-corrected plasma TACs for ^68Ga-DOTAVAP-P1 and ^68Ga-DOTAVAP-PEG-P1, which were further used for the calculation of pharmacokinetic parameters. The area under curve (AUC) of the plasma TAC from 0 to infinity was calculated using a non-compartmental analysis employing the trapezoidal rule. The clearance (CL) of the ^68Ga-labelled peptides after a single intravenous bolus dose was calculated by dividing the injected dose by the AUC. The plot of the natural logarithm of parent tracer concentration against time after bolus injection became linear in the end phase, as the tracer was eliminated according to the laws of first-order reaction kinetics. The elimination rate constant (kel) was calculated as the negative slope of the linear part of the plot. The plasma elimination half-life (t1/2) was calculated as t1/2 = ln(2)/kel. The metabolic half-lives of the ^68Ga-DOTA-peptides were calculated according to the results of radio-HPLC, i.e. the time point when 50% of the total radioactivity is still bound to the intact peptide.

[2] = format: in vitro ADME; details: plasma
Protocol: The in vitro stability of the ^68Ga-labelled peptides was evaluated in human and rat plasma. Several samples were taken during the 4-h incubation period at 37°C. Proteins from plasma samples were precipitated with 10% sulphosalicylic acid (1:1 v/v), centrifuged at 3,900 × g for 3 min at 4°C, and filtered through 0.45-μm Minispike filter (Waters Corporation). The filtrate was analysed by radio-HPLC.

Compound	proportion of unchanged peptide in rat plasma at 60 min after injection [1]	proportion of unchanged peptide in rat plasma at 120 min after injection [1]	AUC [1]	CL [1]	blood-plasma ratio [1]	metabolic half-life [1]	plasma free fraction (fp) [1]	remaining at 4 h ([2]; human)	remaining at 4 h ([2]; rat)
NCCCC[C@H](NC(=O)CNC(=O)CNC(=O)CNC(=O)CNC(=O)CN1CCN(CC(=O)O)CCN(CC(=O)O)CCN(CC(=O)O)CC1)C(=O)NCC(=O)NCC(=O)NCC(=O)NCC(=O)O [^68Ga-DOTAVAP-P1, metal not drawn] ({DOTA}-GGGGKGGGG-OH)	19 ± 4%	4 ± 1%	950 ± 170 min*kBq/ml	0.017 ± 0.001 mL/min	1.3 ± 0.1	0.4 h	0.84 ± 0.04	88 ± 3%	82 ± 11%
NCCCC[C@H](NC(=O)CNC(=O)CNC(=O)CNC(=O)CNC(=O)COCCOCCNC(=O)CN1CCN(CC(=O)O)CCN(CC(=O)O)CCN(CC(=O)O)CC1)C(=O)NCC(=O)NCC(=O)NCC(=O)NCC(=O)O [^68Ga-DOTAVAP-PEG-P1, metal not drawn] ({DOTA-AEEA}-GGGGKGGGG-OH)	76 ± 18%	49 ± 6%	2,400 ± 68 min*kBq/ml	0.008 ± 0.002 mL/min	1.3 ± 0.1	2.08 h	0.86 ± 0.02	89 ± 8%	90 ± 6%
